PubChem BioAssay AID248 (DTP/NCI, 2004)
Values joined by “and” are separate entries in the source; they are usually repeats but may differ in a detail not shown here. Equal values may be shown once. Toxic doses and inconclusive results are not listed. Rule as the data show it: active = T/C of 150% or more; inactive = T/C below 125%.

System: L1210 leukemia ip in BDF1 mice, survival T/C
Assay: NCI In Vivo Anticancer Drug Screen. Data for tumor model L1210 Leukemia (intraperitoneal) in B6D2F1 (BDF1) mice
Details: endpoint: mean survival time, higher = longer survival
Outline: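 Transplanted-tumor mice were given test agent; controls received vehicle only. Survival readings from the two groups were divided (treated over control).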

[1] = dose: 100.0 mg/kg/injection, schedule: Q04DX002 (ip), vehicle: Klucel (hydroxypropylcellulose) (HPC)
[2] = dose: 200.0 mg/kg/injection, schedule: Q04DX002 (ip), vehicle: Klucel (hydroxypropylcellulose) (HPC)
[3] = dose: 400.0 mg/kg/injection, schedule: Q04DX002 (ip), vehicle: Klucel (hydroxypropylcellulose) (HPC)
[4] = dose: 100.0 mg/kg/injection, schedule: Q04DX003 (ip), vehicle: Klucel (hydroxypropylcellulose) (HPC)
[5] = dose: 200.0 mg/kg/injection, schedule: Q04DX003 (ip), vehicle: Klucel (hydroxypropylcellulose) (HPC)
[6] = dose: 400.0 mg/kg/injection, schedule: Q04DX003 (ip), vehicle: Klucel (hydroxypropylcellulose) (HPC)
[7] = dose: 100.0 mg/kg/injection, schedule: Q01DX001 (ip), vehicle: Klucel (hydroxypropylcellulose) (HPC)
[8] = dose: 200.0 mg/kg/injection, schedule: Q01DX001 (ip), vehicle: Klucel (hydroxypropylcellulose) (HPC)
[9] = dose: 100.0 mg/kg/injection, schedule: Q01DX009 (ip), vehicle: Klucel (hydroxypropylcellulose) (HPC)
[10] = dose: 200.0 mg/kg/injection, schedule: Q01DX009 (ip), vehicle: Klucel (hydroxypropylcellulose) (HPC)

Measured: T/C

CCOC(=O)N/N=C/c1ccc(O)cc1
inactive: [1] 91 % of control | [2] 102 % of control | [3] 91 % of control

Oc1c(Cl)cc(N=Cc2ccc(N(CCCCl)CCCCl)cc2Cl)cc1Cl
inactive: dose: 50.0 mg/kg/injection, schedule: Q04DX003 (ip), vehicle: Klucel (hydroxypropylcellulose) (HPC) 101 % of control | [4] 104 % of control | [5] 101 % of control | [6] 98 % of control

CC(=O)OCCC/C(=C\c1ccccc1)[N+](=O)[O-]
inactive: dose: 100.0 mg/kg/injection, schedule: Q01DX001 (ip), vehicle: saline 107 % of control

C=CC(=O)O (tested in a mixture with another compound)
inactive: dose: 100.0 mg/kg/injection, schedule: Q01DX Z (ip), vehicle: saline 91 % of control

Cc1cc(=O)[nH]c(=O)n1Cc1ccccc1
inactive: [7] 117 % of control | [8] 117 % of control | dose: 400.0 mg/kg/injection, schedule: Q01DX001 (ip), vehicle: Klucel (hydroxypropylcellulose) (HPC) 122 % of control

C[CH2][Pb]([CH2]C)([CH2]C)[O]C(C)=O
inactive: dose: 0.62 mg/kg/injection, schedule: Q01DX009 (ip), vehicle: Klucel (hydroxypropylcellulose) (HPC) 96 % of control | dose: 1.25 mg/kg/injection, schedule: Q01DX009 (ip), vehicle: Klucel (hydroxypropylcellulose) (HPC) 102 % of control | dose: 2.5 mg/kg/injection, schedule: Q01DX009 (ip), vehicle: Klucel (hydroxypropylcellulose) (HPC) 93 % of control and 94 % of control | dose: 5.0 mg/kg/injection, schedule: Q01DX001 (ip), vehicle: carboxymethylcellulose (CMC) 100 % of control | dose: 5.0 mg/kg/injection, schedule: Q04DX003 (ip), vehicle: Klucel (hydroxypropylcellulose) (HPC) 90 % of control | dose: 10.0 mg/kg/injection, schedule: Q01DX001 (ip), vehicle: carboxymethylcellulose (CMC) 103 % of control | dose: 10.0 mg/kg/injection, schedule: Q04DX003 (ip), vehicle: Klucel (hydroxypropylcellulose) (HPC) 95 % of control

N[C@H](Cc1c[nH]c2ccccc12)C(=O)O
inactive: dose: 100.0 mg/kg/injection, schedule: Q01DX009 (ip), vehicle: acetone 95 % of control | dose: 200.0 mg/kg/injection, schedule: Q01DX009 (ip), vehicle: acetone 104 % of control | dose: 400.0 mg/kg/injection, schedule: Q01DX009 (ip), vehicle: acetone 102 % of control | dose: 800.0 mg/kg/injection, schedule: Q01DX009 (ip), vehicle: acetone 95 % of control

CCOC(=O)c1cnc(SC)nc1N/N=C/c1ccccc1
inactive: [4] 100 % of control | [5] 101 % of control | [6] 103 % of control

CCCCn1nnc2ccc([N+](=O)[O-])cc2c1=O
inactive: [9] 92 % of control | [10] 87 % of control

Cc1ccc(/C(=C/c2ccc([N+](=O)[O-])cc2)C(=O)O)cc1
inactive: [4] 102 % of control | [5] 98 % of control | [6] 95 % of control

COc1ccc(-c2coc3cc(O)ccc3c2=O)cc1
inactive: dose: 100.0 mg/kg/injection, schedule: Q04DX003 (ip), vehicle: saline with Tween-80 96 % of control | dose: 200.0 mg/kg/injection, schedule: Q04DX003 (ip), vehicle: saline with Tween-80 96 % of control | dose: 400.0 mg/kg/injection, schedule: Q04DX003 (ip), vehicle: saline with Tween-80 96 % of control

CN(C)CC1C2C=CC(C2)C1CN(C)C (centres undefined)
inactive: dose: 100.0 mg/kg/injection, schedule: Q04DX003 (ip), vehicle: saline 96 % of control | dose: 200.0 mg/kg/injection, schedule: Q04DX003 (ip), vehicle: saline 91 % of control

CCC[CH2][Sn]1([CH2]CCC)[O]C(=O)CCC(=O)[O]1
inactive: dose: 1.56 mg/kg/injection, schedule: Q01DX009 (ip), vehicle: Klucel (hydroxypropylcellulose) (HPC) 113 % of control | dose: 3.12 mg/kg/injection, schedule: Q01DX009 (ip), vehicle: Klucel (hydroxypropylcellulose) (HPC) 87 % of control

Cc1ccc(NC(=O)Oc2ccccc2C(=O)OCc2ccccc2)cc1
inactive: [9] 101 % of control | [1] 88 % of control | [10] 106 % of control | [2] 88 % of control | dose: 400.0 mg/kg/injection, schedule: Q01DX009 (ip), vehicle: Klucel (hydroxypropylcellulose) (HPC) 101 % of control | [3] 107 % of control

Cc1ccccc1-n1c(O)c(N=Nc2ccc(Cl)cc2)c(=O)n(-c2ccccc2)c1=S
inactive: [7] 87 % of control | [8] 109 % of control

COc1cc(C(=O)CCC(=O)O)c(OC)c(C)c1C
inactive: dose: 100.0 mg/kg/injection, schedule: Q01DX001 (ip), vehicle: other 93 % of control | dose: 200.0 mg/kg/injection, schedule: Q01DX001 (ip), vehicle: other 96 % of control | dose: 400.0 mg/kg/injection, schedule: Q01DX001 (ip), vehicle: other 91 % of control
